According to ChEMBL document CHEMBL1201862, “PubChem BioAssay data set” (2004):
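Five concentrations, 48 hours, 96-well plates. GI50 is the concentration that inhibits growth by half.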 Calls of active or inactive are those of the source. No stated cut-off is given here; in the data, active = GI50 up to about 1.1 µM and inactive = higher.

What was measured:
Experiment in all cases: DTP human tumour cell line panel, 48 h
[1] = system: SK-MEL-28
[2] = system: TK-10
[3] = system: HOP-62
[4] = system: MOLT-4
[5] = system: CCRF-CEM
[6] = system: Hs-578T
[7] = system: CAKI-1
[8] = system: NCI-H226
[9] = system: SF-295
[10] = system: BT-549
[11] = system: DU-145
[12] = system: NCI-H23
[13] = system: A549
[14] = system: U-251
[15] = system: HOP-92
[16] = system: A498
[17] = system: SK-OV-3
[18] = system: M14
[19] = system: UACC-62
[20] = system: OVCAR-3

Measured: GI50

Cc1nc2ccc(NCCN(C)C)c3c(=O)c4ccccc4n1c23
active: [4] 0.348 µM
inactive: [1] 8.22 µM | [2] 4.08 µM | [3] 1.51 µM | [5] 1.22 µM | [6] 2.55 µM | [7] 2.76 µM | [8] 1.56 µM | [9] 1.84 µM | [10] 10.5 µM | [11] 2.07 µM | [12] 2.97 µM | [13] 1.16 µM | [14] 2.22 µM | [15] 2.25 µM | [16] 3.91 µM | [17] 3.96 µM | [18] 4.03 µM | [19] 5.02 µM | [20] 5 µM

Cn1c(=O)sc2cc(C(=S)N3CCOCC3)ccc21
inactive: [1] > 100 µM | [2] > 100 µM | [3] > 100 µM | [4] 39.9 µM | [5] 28.6 µM | [6] > 41 µM | [7] > 100 µM | [8] > 46.9 µM | [9] > 100 µM | [10] > 100 µM | [11] > 100 µM | [12] > 100 µM | [13] > 100 µM | [14] > 59.7 µM | [15] 9.89 µM | [16] > 100 µM | [17] > 100 µM | [18] > 100 µM | [19] > 100 µM | [20] > 100 µM

c1ccc2c(c1)CCCN1CCc3ccccc3C21 (stereo not given)
inactive: [1] 31.4 µM | [2] 61.4 µM | [3] 50 µM | [4] 50.9 µM | [5] 49.1 µM | [6] > 100 µM | [7] 93.5 µM | [8] 33.3 µM | [9] 40.2 µM | [10] 60.1 µM | [11] > 100 µM | [12] 48.4 µM | [13] 60.1 µM | [14] 51.5 µM | [15] 24.9 µM | [16] > 100 µM | [17] 66.5 µM | [18] 26.9 µM | [19] 35.2 µM | [20] > 100 µM

CCC1(c2ccc(N)cc2)CCC(=O)NC1=O (stereo not given) [AMINOGLUTETHIMIDE]
inactive: [1] 3610 µM | [2] 2170 µM | [3] 1050 µM | [4] 1440 µM | [5] 665 µM | [6] 1520 µM | [7] 1460 µM | [8] 1880 µM | [9] 1880 µM | [10] 1660 µM | [11] 3030 µM | [12] 3240 µM | [13] 2880 µM | [14] 2050 µM | [15] 1030 µM | [16] 2310 µM | [17] 1190 µM | [18] 2290 µM | [19] 1820 µM | [20] 1810 µM
